Measured values from ChEMBL document CHEMBL3217410, “New potent, short-linker BODIPY-630/650TM labelled fluorescent adenosine receptor agonists” (Medchemcomm, 2012).
pEC50, pIC50, pKi: −log10 of the molar value. Activity calls are given as the source filed them. The rule behind the calls is not given here.

Assays:
[1] = target: T1, Adenosine receptor A1 (Homo sapiens, UniProt P30542); assay: (§1) Agonist activity at human adenosine A1 receptor expressed in CHO cells assessed as Gi-mediated inhibition of forskolin-stimulated SPAP secretion incubated for 10 mins prior to forskolin challenge measured after 5 hrs by spectrophotometry; assay type: functional, cell-based
T1 sequence (P30542 whole entry): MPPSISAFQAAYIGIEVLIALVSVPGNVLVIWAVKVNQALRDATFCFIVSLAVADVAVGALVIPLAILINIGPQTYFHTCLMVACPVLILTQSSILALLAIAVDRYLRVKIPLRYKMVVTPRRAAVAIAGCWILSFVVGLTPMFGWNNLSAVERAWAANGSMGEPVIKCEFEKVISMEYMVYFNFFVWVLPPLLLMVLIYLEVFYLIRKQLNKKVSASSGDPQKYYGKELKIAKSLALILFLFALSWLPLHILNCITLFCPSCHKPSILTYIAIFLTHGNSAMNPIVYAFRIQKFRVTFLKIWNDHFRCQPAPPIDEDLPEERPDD

[2] = target: T2, Adenosine receptor A1 (Homo sapiens) (UniProt P30542); assay: as §1; assay type: functional, cell-based
T2 sequence (whole entry): T1 sequence (P30542 whole entry)

[3] = target: T1, Adenosine receptor A1; assay: (§2) Agonist activity at human adenosine A1 receptor expressed in CHO cells assessed as Gs-mediated activation of forskolin-stimulated SPAP secretion incubated for 10 mins prior to forskolin challenge measured after 5 hrs by spectrophotometry; assay type: functional, cell-based
[4] = target: T2, Adenosine receptor A1 (Homo sapiens); assay: as §2; assay type: functional, cell-based
[5] = target: T2, Adenosine receptor A1 (Homo sapiens); assay: Binding affinity to human adenosine A1 receptor expressed in CHO cells at 100 nM after 30 mins by confocal microscopy; assay type: cell-based
[6] = target: T1, Adenosine receptor A1; assay: (§3) Displacement of [3H]DPCPX from human adenosine A1 receptor expressed in CHO cells after 2 hrs by scintillation counting analysis relative to control; assay type: cell-based
[7] = target: T2, Adenosine receptor A1 (Homo sapiens); assay: as §3; assay type: cell-based
[8] = target: T2, Adenosine receptor A1 (Homo sapiens); assay: Agonist activity at human adenosine A1 receptor expressed in CHO cells assessed as Gi-mediated inhibition of forskolin-stimulated SPAP secretion incubated for 10 mins prior to forskolin challenge measured after 5 hrs in presence of 1 uM adenosine A1 receptor antagonist XAC by spectrophotometry; assay type: functional, cell-based
[9] = target: T2, Adenosine receptor A1 (Homo sapiens); assay: Binding affinity to human adenosine A1 receptor expressed in CHO cells at 100 nM after 30 mins by confocal microscopy in presence of DPCPX; assay type: cell-based
[10] = target: T2, Adenosine receptor A1 (Homo sapiens); assay: Agonist activity at human adenosine A1 receptor expressed in CHO cells assessed as Gs-mediated activation of forskolin-stimulated SPAP secretion up to 10^-5 M incubated for 10 mins prior to forskolin challenge measured after 5 hrs by spectrophotometry; assay type: functional, cell-based
[11] = target: T2, Adenosine receptor A1 (Homo sapiens); assay: Binding affinity to human adenosine A1 receptor expressed in CHO cells assessed as internalization at 100 nM after 30 mins by confocal microscopy; assay type: cell-based

Row | SMILES | pIC50 [1] | inhibition [2] [%] | pEC50 [3] | Activity [4] | Activity [5] | pKi [6] | Activity [7] [%] | Activity [8] | Activity [9] | Activity [10] | Activity [11]
1 | CCNC(=O)[C@H]1O[C@@H](n2cnc3c(NCCCNC(=O)COc4ccc(/C=C/C5=[N+]6C(=Cc7ccc(-c8cccs8)n7[B-]6(F)F)C=C5)cc4)ncnc32)[C@H](O)[C@@H]1O | 9.31 | 97 | 6.58 | 188% | Active | 6.38 | 59 | inactive | inactive | – | –
2 | CCNC(=O)[C@H]1O[C@@H](n2cnc3c(NCCNC(=O)COc4ccc(/C=C/C5=[N+]6C(=Cc7ccc(-c8cccs8)n7[B-]6(F)F)C=C5)cc4)ncnc32)[C@H](O)[C@@H]1O | 8.69 | 100 | 6.63 | 64% | Active | 6.44 | 50 | inactive | inactive | – | –
3 | CCNC(=O)[C@H]1O[C@@H](n2cnc3c(NCCOCCOCCNC(=O)COc4ccc(/C=C/C5=[N+]6C(=Cc7ccc(-c8cccs8)n7[B-]6(F)F)C=C5)cc4)ncnc32)[C@H](O)[C@@H]1O | 7.13 | 102 | – | inactive | Active | – | – | inactive | inactive | – | –
4 | CCNC(=O)[C@H]1O[C@@H](n2cnc3c(NCCCCCCCCNC(=O)COc4ccc(/C=C/C5=[N+]6C(=Cc7ccc(-c8cccs8)n7[B-]6(F)F)C=C5)cc4)ncnc32)[C@H](O)[C@@H]1O | 7.57 | – | – | inactive | – | – | – | inactive | inactive | inactive | –
5 | CCNC(=O)[C@H]1O[C@@H](n2cnc3c(NCCCCNC(=O)COc4ccc(/C=C/C5=[N+]6C(=Cc7ccc(-c8cccs8)n7[B-]6(F)F)C=C5)cc4)ncnc32)[C@H](O)[C@@H]1O | 8.28 | 101 | 5.63 | 155% | – | 6.58 | 43 | inactive | inactive | – | –
6 | CCNC(=O)[C@H]1O[C@@H](n2cnc3c(NCCOCCOCCOCCNC(=O)COc4ccc(/C=C/C5=[N+]6C(=Cc7ccc(-c8cccs8)n7[B-]6(F)F)C=C5)cc4)ncnc32)[C@H](O)[C@@H]1O | 6.72 | 99 | – | inactive | – | – | – | inactive | – | – | –
7 | CCNC(=O)[C@H]1O[C@@H](n2cnc3c(NCCCCCCCCCCCNC(=O)COc4ccc(/C=C/C5=[N+]6C(=Cc7ccc(-c8cccs8)n7[B-]6(F)F)C=C5)cc4)ncnc32)[C@H](O)[C@@H]1O | 6.89 | – | – | inactive | – | – | – | inactive | inactive | inactive | Active
8 | CCNC(=O)[C@H]1O[C@@H](n2cnc3c(N)ncnc32)[C@H](O)[C@@H]1O | – | 105 | – | 177% | – | – | 73 | inactive | – | – | –
